Laboratory results published in US4111923A, “Octapeptides and methods for their production” (Parke, Davis & Company, priority 1976, dated 1978).
Non-standard residues stand in square brackets, D forms with d. Residues, ends and D or L forms follow the SMILES beside them. *: point of attachment. Cbz = O=C(OCc1ccccc1)*; Bn = c1ccc(C*)cc1

Tested on: LRF-induced luteinizing hormone (LH) release in rat anterior pituitary cell cultures
Assay: In vitro test in rat anterior pituitary cell cultures: inhibition of LRF-induced LH release into the culture medium
Type: cell-based
Description: octapeptides of this invention are screened for LRF antagonist activity in vitro using rat anterior pituitary cell cultures as described by Vale et al. [Endocrinology, 91, 562 (1972)]. The inhibition of LRF-induced luteinizing hormone (LH) release into the culture medium is the endpoint in this in vitro bioassay. Active peptides are then tested in vivo by the procedures of Humphrey et al. [Endocrinology, 92, 1515 (1972)]. Antagonist activity is assessed by the inhibition of LRF-induced LH release in the female rat and LRF-induced ovulation in the rabbit.
Following are the results of the above in vitro tests on certain preferred compounds.

[1] = compound 1×10^-8 molar, LRF 5×10^-10, LRF control 46.58, saline control 9.10
[2] = compound 1×10^-9 molar, LRF 5×10^-10, LRF control 46.58, saline control 9.10
[3] = compound 5×10^-8 molar, LRF 5×10^-10, LRF control 46.58, saline control 9.10
[4] = compound 5×10^-9 molar, LRF 5×10^-10, LRF control 46.58, saline control 9.10
[5] = compound 1×10^-8 molar, LRF 3.5×10^-10, LRF control 42.38, saline control 8.72
[6] = compound 1×10^-9 molar, LRF 3.5×10^-10, LRF control 42.38, saline control 8.72
[7] = compound 1×10^-10 molar, LRF 3.5×10^-10, LRF control 42.38, saline control 8.72
[8] = compound 2×10^-9 molar, LRF 3.5×10^-10, LRF control 42.38, saline control 8.72
[9] = compound 2.5×10^-10 molar, LRF 3.5×10^-10, LRF control 42.38, saline control 8.72
[10] = compound 3.5×10^-9 molar, LRF 3.5×10^-10, LRF control 42.38, saline control 8.72
[11] = compound 6×10^-9 molar, LRF 3.5×10^-10, LRF control 42.38, saline control 8.72
[12] = compound 6×10^-10 molar, LRF 3.5×10^-10, LRF control 42.38, saline control 8.72
[13] = first series, compound 1×10^-8 molar, LRF 5×10^-10, LRF control 52.80, saline control 13.28
[14] = first series, compound 1×10^-9 molar, LRF 5×10^-10, LRF control 52.80, saline control 13.28
[15] = first series, compound 2.5×10^-9 molar, LRF 5×10^-10, LRF control 52.80, saline control 13.28
[16] = first series, compound 2.5×10^-10 molar, LRF 5×10^-10, LRF control 52.80, saline control 13.28
[17] = first series, compound 5×10^-9 molar, LRF 5×10^-10, LRF control 52.80, saline control 13.28
[18] = first series, compound 5×10^-10 molar, LRF 5×10^-10, LRF control 52.80, saline control 13.28
[19] = second series, compound 1×10^-9 molar, LRF 5×10^-10, LRF control 69.43, saline control 18.17
[20] = second series, compound 1×10^-10 molar, LRF 5×10^-10, LRF control 69.43, saline control 18.17
[21] = second series, compound 2.5×10^-9 molar, LRF 5×10^-10, LRF control 69.43, saline control 18.17
[22] = second series, compound 2.5×10^-10 molar, LRF 5×10^-10, LRF control 69.43, saline control 18.17
[23] = second series, compound 5×10^-10 molar, LRF 5×10^-10, LRF control 69.43, saline control 18.17
[24] = first series, compound 1×10^-10 molar, LRF 5×10^-10, LRF control 52.80, saline control 13.28
[25] = compound 2×10^-8 molar, LRF 3.5×10^-10, LRF control 42.38, saline control 8.72

## CCNC(=O)[C@@H]1CCCN1C(=O)[C@H](CCCNC(=N)N)NC(=O)[C@H](CC(C)C)NC(=O)[C@@H](Cc1ccccc1)NC(=O)[C@H](Cc1ccc(O)cc1)NC(=O)[C@H](CO)NC(=O)[C@H](Cc1c[nH]c2ccccc12)NC(=O)[C@H](CCC(N)=O)NC(=O)OCc1ccccc1 [N^α -Benzyloxycarbonyl-L-glutaminyl-L-tryptophyl-L-seryl-L-tyrosyl-D-phenylalanyl-L-leucyl-L-arginyl-L-proline N-ethylamide] (Cbz-QWSY[dF]LRP-NHEt)
[1]
  % LH Release Inhibition: 71%
  LH Value: 19.91 ng/mL
[2]
  % LH Release Inhibition: 23%
  LH Value: 38.13 ng/mL
[3]
  % LH Release Inhibition: 95%
  LH Value: 11.16 ng/mL
[4]
  % LH Release Inhibition: 42%
  LH Value: 30.85 ng/mL

## CCNC(=O)[C@@H]1CCCN1C(=O)[C@H](CCCNC(=N)N)NC(=O)[C@H](CC(C)C)NC(=O)[C@@H](Cc1ccccc1)NC(=O)[C@H](Cc1ccc(O)cc1)NC(=O)[C@H](CO)NC(=O)[C@H](Cc1c[nH]c2ccccc12)NC(=O)[C@H](COCc1ccccc1)NC(=O)OCc1ccccc1.Cl [N^α -Benzyloxycarbonyl-O-benzyl-L-seryl-L-tryptophyl-L-seryl-L-tyrosyl-D-phenylalanyl-L-leucyl-L-arginyl-L-proline N-ethylamide hydrochloride] (Cbz-S(Bn)WSY[dF]LRP-NHEt)
[5]
  % LH Release Inhibition: 99%
  LH Value: 9.16 ng/mL
[6]
  % LH Release Inhibition: 68%
  LH Value: 19.35 ng/mL
[7]
  % LH Release Inhibition: 18%
  LH Value: 36.48 ng/mL
[8]
  % LH Release Inhibition: 83%
  LH Value: 14.48 ng/mL
[9]
  % LH Release Inhibition: 37%
  LH Value: 29.88 ng/mL
[10]
  % LH Release Inhibition: 93%
  LH Value: 11.16 ng/mL
[11]
  % LH Release Inhibition: 93%
  LH Value: 10.95 ng/mL
[12]
  % LH Release Inhibition: 50%
  LH Value: 25.41 ng/mL

## N^α -Benzyloxycarbonyl-O-benzyl-L-seryl-L-tryptophyl-L-seryl-L-tyrosyl-DL-pentamethylphenylalanyl-L-leucyl-L-arginyl-L-proline N-ethylamide
[13]
  % LH Release Inhibition: 102%
  LH Value: 12.61 ng/mL
[14]
  % LH Release Inhibition: 89%
  LH Value: 17.58 ng/mL
[15]
  % LH Release Inhibition: 102%
  LH Value: 12.47 ng/mL
[16]
  % LH Release Inhibition: 61%
  LH Value: 28.53 ng/mL
[17]
  % LH Release Inhibition: 96%
  LH Value: 14.80 ng/mL
[18]
  % LH Release Inhibition: 62%
  LH Value: 28.31 ng/mL
[19]
  % LH Release Inhibition: 100%
  LH Value: 18.35 ng/mL
[20]
  % LH Release Inhibition: 42%
  LH Value: 48.03 ng/mL
[21]
  % LH Release Inhibition: 108%
  LH Value: 13.91 ng/mL
[22]
  % LH Release Inhibition: 65%
  LH Value: 36.04 ng/mL
[23]
  % LH Release Inhibition: 87%
  LH Value: 24.94 ng/mL

## N^α -BENZYLOXYCARBONYL-O-BENZYL-L-SERYL-L-TRYPTOPHYL-L-SERYL-L-TYROSYL-D-PENTAMETHYLPHENYLALANYL-L-LEUCYL-L-ARGINYL-L-PROLINE N-ETHYLAMIDE
[13]
  % LH Release Inhibition: 104%
  LH Value: 11.58 ng/mL
[14]
  % LH Release Inhibition: 91%
  LH Value: 16.69 ng/mL
[24]
  % LH Release Inhibition: 36%
  LH Value: 38.59 ng/mL
[15]
  % LH Release Inhibition: 105%
  LH Value: 11.35 ng/mL
[16]
  % LH Release Inhibition: 47%
  LH Value: 34.06 ng/mL
[17]
  % LH Release Inhibition: 100%
  LH Value: 13.16 ng/mL
[18]
  % LH Release Inhibition: 70%
  LH Value: 25.16 ng/mL
[19]
  % LH Release Inhibition: 104%
  LH Value: 16.00 ng/mL
[20]
  % LH Release Inhibition: 46%
  LH Value: 46.11 ng/mL
[21]
  % LH Release Inhibition: 98%
  LH Value: 19.09 ng/mL
[22]
  % LH Release Inhibition: 77%
  LH Value: 30.08 ng/mL
[23]
  % LH Release Inhibition: 90%
  LH Value: 23.26 ng/mL

## N^α -Benzyloxycarbonyl-N^γ -benzyl-L-glutaminyl-L-tryptophyl-L-seryl-L-tyrosyl-D-phenylalanyl-L-leucyl-L-arginyl-L-proline N-ethylamide
[5]
  % LH Release Inhibition: 92%
  LH Value: 11.28 ng/mL
[6]
  % LH Release Inhibition: 56%
  LH Value: 23.66 ng/mL
[7]
  % LH Release Inhibition: 35%
  LH Value: 30.60 ng/mL
[25]
  % LH Release Inhibition: 94%
  LH Value: 10.77 ng/mL
[8]
  % LH Release Inhibition: 60%
  LH Value: 22.09 ng/mL
[9]
  % LH Release Inhibition: 20%
  LH Value: 35.62 ng/mL
[10]
  % LH Release Inhibition: 61%
  LH Value: 21.76 ng/mL
[11]
  % LH Release Inhibition: 81%
  LH Value: 15.07 ng/mL
[12]
  % LH Release Inhibition: 51%
  LH Value: 25.13 ng/mL

## LRF: luteinizing hormone releasing factor, also referred to as luteinizing hormone releasing hormone, or LH-RH; stimulates secretion of luteinizing hormone (QHWSYGLRPG; Gonadoliberin-1; UniProt P01148 24-33, looked up) [reference compound]
LRF alone 3.5×10^-10 molar, saline control 8.72
  LH Value: 42.38 ng/mL
LRF alone 5×10^-10 molar, saline control 9.10
  LH Value: 46.58 ng/mL
First series, LRF alone 5×10^-10 molar, saline control 13.28
  LH Value: 52.80 ng/mL
Second series, LRF alone 5×10^-10 molar, saline control 18.17
  LH Value: 69.43 ng/mL
